Source: US20240287036A1, “COMPOUNDS USEFUL IN THE TREATMENT OR PREVENTION OF A PRMT5-MEDIATED DISORDER” (ARGONAUT THERAPEUTICS LIMITED, priority 2021, published 2024)

What was measured:
[1] = Hepatocyte stability assay (Human Hep Clint); assay type: in vitro ADME; settings: cryopreserved pooled human hepatocytes, 0.5 × 10^6 cells/mL, 1 μM test compound, up to 90 min
Procedure: The activity of the compounds was tested using several industry accepted methods. These included methods to measure the human hepatocyte clearance values (Human Hep Clint) and a PRMT5 assay. The methods that were used were conventional.
Cell viability was tested by trypan blue exclusion after thawing.
Thawing Medium: Williams' Medium E containing 5% fetal bovine serum and 30% Percoll solution and other supplements.
Incubation Medium: Williams' Medium E (no phenol red) containing 2 mM L-Glutamine and 25 mM HEPES.
Stop Solution: Acetonitrile containing 200 ng/ml tolbutamide and labetalol as internal standards.
The following steps were performed. • 1. 10 mM test compounds were provided by Compound Sample Group. • 2. 30 mM positive control stock solutions: Dissolved accurate amount of positive control compounds in dimethyl sulfoxide (DMSO). • 3. 1000× Stock Solution: Diluted 10 mM test compounds and 30 mM positive control compounds to 1 mM and 3 mM with DMSO in 96-well plates. • 4. 100× Dosing Solution: Diluted 1 mM test compounds and 3 mM positive control compounds to 100 µM and 300 µM dosing solutions with ACN. • 5. Preparation of 0.5×10^6/mL cells suspension: cryopreserved cells were thawed, isolated and suspended in Incubation Medium, then diluted with pre-warmed Incubation Medium to 0.5×10^6 cells/mL. • 6. Add 198 μL of pre-warmed cell suspensions in 96-well plates. • 7. Preparation of Quenching Plate: Transfer 125 μL of stop solution (acetonitrile containing 200 ng/ml tolbutamide and 200 ng/ml labetalol as internal standards) in a set of pre-labelled 96-well plates. • 8. Spike 2 μL dosing solution to each well of 96-well plates in duplicates. • 9. For T0 Samples, mix to achieve a homogenous suspension for about 1 min, then immediately transfer 25 μL of each sample into well containing 125 μL of ice-cold stop solution followed by mixing. • 10. Incubate all plates at 37° ° C. in a 95% humidified incubator at 5% CO2 to start the reactions with constant shaking at about 600 rpm. • 11. At 15, 30, 60 and 90 min, mix samples and then transfer 25 μL of each sample at each time point to well containing 125 μL of ice-cold stop solution followed by mixing. • 12. Medium Control (MC) sample plates (labelled as T0-MC and T90-MC) are prepared at TO and T90 by adding the same components to each well except cell suspensions. • 13. At each corresponding time point, stop the reactions by removing the plates from incubator and mixing with 125 μL of ice-cold stop solution. • 14. Vortex the plates immediately on a plate shaker at 500 rpm for 10 minutes. Then, centrifuge all sample plates at 3220× g for 20 min at 4° C. • 15. After centrifugation, 80 μL/well of supernatant in the sample plates are transferred to another set of pre-labelled 96-well plates which containing 240 μL of ultra pure water according to the plate map. • 16. Analytical plates are sealed and store at 4° C. until LC-MS/MS analysis.
The remaining percents of test articles after incubation were calculated by the follow equations: […]
Use equation of first order kinetics to calculate t1/2 and CLint. Equation of first order kinetics:
[formula] [formula] CLint (hep)=k/million cells per mL
CLint (liver)=CLint (hep)·liver weight (g/kg body weight)*hepatocellularity

[2] = biological target: T1, human PRMT5/MEP50 (Homo sapiens, UniProt O14744); test: PRMT5 chemiluminescent assay; assay type: biochemical; settings: human PRMT5/MEP50 expressed in HEK293 cells, biotinylated histone peptides, 60 min reaction; read-out: PRMT5 pIC50 (converted)
T1 construct: host or cells: HEK293 cells
T1 sequence (O14744 whole entry): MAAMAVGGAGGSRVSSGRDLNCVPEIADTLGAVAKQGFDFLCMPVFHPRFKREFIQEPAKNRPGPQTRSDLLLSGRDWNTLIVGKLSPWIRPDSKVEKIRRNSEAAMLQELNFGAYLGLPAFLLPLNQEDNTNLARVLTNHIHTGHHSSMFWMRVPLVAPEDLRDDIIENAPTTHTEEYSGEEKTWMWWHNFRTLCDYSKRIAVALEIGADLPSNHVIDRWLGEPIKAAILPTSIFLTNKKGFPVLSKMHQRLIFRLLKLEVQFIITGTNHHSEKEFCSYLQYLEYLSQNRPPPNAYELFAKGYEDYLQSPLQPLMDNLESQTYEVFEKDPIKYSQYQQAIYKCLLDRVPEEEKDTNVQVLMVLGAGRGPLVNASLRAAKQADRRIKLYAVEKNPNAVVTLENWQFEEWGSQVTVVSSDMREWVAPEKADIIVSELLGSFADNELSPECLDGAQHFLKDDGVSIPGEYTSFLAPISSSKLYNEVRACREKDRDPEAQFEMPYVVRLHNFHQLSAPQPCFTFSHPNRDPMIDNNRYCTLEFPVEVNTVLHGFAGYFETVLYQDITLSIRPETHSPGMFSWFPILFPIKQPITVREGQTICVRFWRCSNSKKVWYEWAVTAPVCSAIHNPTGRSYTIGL
T1 sequence (Q9BQA1 whole entry partner): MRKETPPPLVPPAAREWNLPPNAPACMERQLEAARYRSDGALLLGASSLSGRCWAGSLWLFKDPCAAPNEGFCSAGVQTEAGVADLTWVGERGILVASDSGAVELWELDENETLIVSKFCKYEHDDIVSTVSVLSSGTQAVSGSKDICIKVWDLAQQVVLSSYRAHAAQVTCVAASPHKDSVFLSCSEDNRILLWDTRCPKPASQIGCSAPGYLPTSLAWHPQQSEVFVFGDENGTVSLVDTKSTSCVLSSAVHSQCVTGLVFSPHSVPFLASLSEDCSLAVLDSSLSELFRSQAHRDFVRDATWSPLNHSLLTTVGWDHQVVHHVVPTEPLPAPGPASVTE
Procedure: A PRMT5 chemiluminescent assay was used to measure the IC50 activity of PRMT5 of the compounds of CEx and Examples 1 to 8 above. Biotinylated histone peptides were synthesized and attached to 384-well plates. Compound serial dilutions were performed and added to the assay plate. Histone H4 monomethyl R^3 antibody was obtained from Abcam. A master mix for each well was prepared and human PRMT5/MEP50 (expressed in HEK293 cells) diluted in assay buffer to a concentration of 5 ng/μL. The reaction was incubated and slowly rotated for 60 minutes at the point of PRMT5/MEP50 addition. The supernatant from the wells was removed and blocking buffer was added to each well and rotated for 10 minutes. The primary antibody was diluted and added to every well for 60 minutes, before it was removed and the wells washed. The horse radish peroxidase (HRP)-coupled secondary antibody was diluted and added to each well with an incubation time of 30 minutes. The HRP chemiluminescent substrate was added to every well. The plate was read on a Flourstar Omega BMG Labtech instrument (Ortenberg, Germany) and the analysis of IC50 was performed using the Flourstar Omega BMG Labtech software.

SMILES | hepatocyte CLint at 1 μM [1] [µL/min/1e6 cells] | IC50 [2] [µM]
O=C(NC[C@H](O)CN1CCc2ccccc2C1)N1CCC[C@@H](c2ccccc2)C1 [CEx, reference compound] | 54.1 | 0.0126
CC1CCC(=O)N([C@@H]2CCCN(C(=O)NC[C@H](O)CN3CCc4ccccc4C3)C2)C1 (stereo partly drawn) [Ex. 3, (3′R)—N—((S)-3-(3,4-dihydroisoquinolin-2(1H)-yl)-2-hydroxypropyl)-5-methyl-2-oxo-[1,3′-bipiperidine]-1′-carboxamide] | 2.5 | 0.0316
O=C(NC[C@H](O)CN1CCc2ccccc2C1)N1CCC[C@@H](N2CCCC2=O)C1 [Ex. 1, (R)—N—((S)-3-(3,4-dihydroisoquinolin-2(1H)-yl)-2-hydroxypropyl)-3-(2-oxopyrrolidin-1-yl)piperidine-1-carboxamide] | 1.7 | 0.0501
O=C(NC[C@H](O)CN1CCc2ccccc2C1)N1CCC[C@@H](N2CCCCC2=O)C1 [Ex. 2, (R)—N—((S)-3-(3,4-dihydroisoquinolin-2(1H)-yl)-2-hydroxypropyl)-2-oxo-[1,3′-bipiperidine]-1′-carboxamide] | < 3 | 0.0158

More lines, now with the values ahead:

hepatocyte CLint at 1 μM [1] [µL/min/1e6 cells] | IC50 [2] [µM] | SMILES
10.8 | 0.00794 | Cc1ccnn([C@@H]2CCCN(C(=O)NC[C@H](O)CN3CCc4ccccc4C3)C2)c1=O [Ex. 7, (R)—N—((S)-3-(3,4-dihydroisoquinolin-2(1H)-yl)-2-hydroxypropyl)-3-(5-methyl-6-oxopyridazin-1(6H)-yl)piperidine-1-carboxamide]
< 6.4 | 0.0126 | CN1CCCN([C@@H]2CCCN(C(=O)NC[C@H](O)CN3CCc4ccccc4C3)C2)C1=O [Ex. 8, (R)—N—((S)-3-(3,4-dihydroisoquinolin-2(1H)-yl)-2-hydroxypropyl)-3-(3-methyl-2-oxotetrahydropyrimidin-1(2H)-yl)piperidine-1-carboxamide]
2.5 | 0.0316 | [2H]C1([2H])c2ccccc2CCN1C[C@@H](O)CNC(=O)N1CCC[C@@H](N2CCCCC2=O)C1 [Ex. 4, (R)—N—((S)-3-(3,4-dihydroisoquinolin-2(1H)-yl-1,1-d2)-2-hydroxypropyl)-2-oxo-[1,3′-bipiperidine]-1′-carboxamide]
< 6 | 0.0126 | CC1CCCN([C@@H]2CCCN(C(=O)NC[C@H](O)CN3CCc4ccccc4C3)C2)C1=O (stereo partly drawn) [Ex. 6, (3′R)—N—((S)-3-(3,4-dihydroisoquinolin-2(1H)-yl)-2-hydroxypropyl)-3-methyl-2-oxo-[1,3′-bipiperidine]-1′-carboxamide]
– | 0.02 | [2H]C1([2H])CN(C[C@@H](O)CNC(=O)N2CCC[C@@H](N3CCCCC3=O)C2)C([2H])([2H])c2ccccc21 [Ex. 5, (R)—N—((S)-3-(3,4-dihydroisoquinolin-2(1H)-yl-1,1,4,4-d4)-2-hydroxypropyl)-2-oxo-[1,3′-bipiperidine]-1′-carboxamide]
